This note sets out measurements from publication PMC7004565, “Nucleotide inhibition of the pancreatic ATP-sensitive K^+ channel explored with patch-clamp fluorometry” (eLife, 2020).

For orientation: IC50 means the concentration that inhibits the measured activity by half. Read a high IC50 as weaker potency in that assay. In general, Emax refers to the size of the effect at its maximum, as opposed to the concentration needed. By EC50 is commonly meant the concentration at which the effect is half-maximal.

The target in experiment [1] is T1, Kir6.2-GFP (no SUR1) (Homo sapiens, UniProt Q14654).
T1 construct: ANAP labelling is specific and only full-length Kir6.2 is expressed at the cell membrane; expressed in transfected cells; host or cells: HEK-293T
T1 sequence (Q14654 1-390): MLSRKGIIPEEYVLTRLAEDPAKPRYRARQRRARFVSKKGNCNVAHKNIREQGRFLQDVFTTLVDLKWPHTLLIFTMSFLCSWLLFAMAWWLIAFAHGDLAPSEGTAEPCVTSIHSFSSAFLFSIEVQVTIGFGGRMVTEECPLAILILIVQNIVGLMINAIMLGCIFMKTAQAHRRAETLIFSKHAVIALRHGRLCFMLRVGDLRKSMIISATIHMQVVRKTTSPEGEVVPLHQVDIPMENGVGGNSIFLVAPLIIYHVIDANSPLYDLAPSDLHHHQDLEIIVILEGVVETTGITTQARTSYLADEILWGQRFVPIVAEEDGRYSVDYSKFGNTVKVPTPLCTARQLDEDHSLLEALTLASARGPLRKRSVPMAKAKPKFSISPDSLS
The experiment is described as follows: Current inhibition in excised inside-out patches. Particulars: excised inside-out patches, no SUR1, Mg2+-free, Hill fit. In kind it is biochemical. On the procedure:
Currents were measured from patches from cells expressing KATP that were excised in the absence of Mg^2+. Under such conditions, nucleotides can bind to both sites on SUR1, but no activation occurs, allowing inhibitory currents to be measured in isolation ([Gribble et al., 1998]; [Ueda et al., 1999]; [Puljung et al., 2019]).

Experiment [2] addresses T2, Kir6.2*-GFP + SUR-K205E (Homo sapiens, UniProt Q14654).
T2 construct: ANAP labelling is specific and only full-length Kir6.2 is expressed at the cell membrane; expressed in transfected cells; host or cells: HEK-293T
The experiment is described as follows: ANAP fluorescence quenching in excised patches (patch-clamp fluorometry). In kind it is binding. As to conditions: excised patches (PCF), Hill fit. From the text: We introduced a charge neutralization (alanine, K205A) and a charge reversal (glutamate, K205E) mutation at this position and measured simultaneous nucleotide binding and current inhibition with PCF (Figure 4B,C,D). The binding and inhibition curves for TNP-ATP almost perfectly overlaid for the SUR1-K205A mutant (Figure 4C). The same was also true for SUR1-K205E (Figure 4D). Data were fit with the MWC-type model as before. […] This was reflected by a decrease in the estimated KA for TNP-ATP, which correlated with the degree of conservation of the mutation, that is we observed a larger effect for the charge reversal compared to the charge neutralization mutation (Figure 4E). However, in addition to direct effects of K205 on nucleotide binding, we also observed a shift in D for both mutations (Figure 4E).
Currents were measured as described above.
ANAP bleaching was corrected as for the unroofed binding experiments with Equation 1 (Figure 2—figure supplement 3A). Due to the lower signal-to-noise ratio for PCF compared to the unroofed membranes, we performed experiments from both high-to-low and low-to-high TNP-ATP concentrations to minimise artifacts from our bleaching corrections.
For orientation: In patch-clamp work, channel activity is measured electrically.

Experiment [3] has as its target Kir6.2-GFP + SUR1 (Homo sapiens, UniProt Q14654). The experiment can be described thus: FRET (ANAP quenching) nucleotide binding in unroofed membranes. More on the design: full length, fully ANAP-labelled Kir6.2 protein was produced and successfully trafficked to the membrane in the presence of SUR1; expressed in transfected cells; host or cells: HEK-293T. Particulars: Hill fit. The text has this:
To measure nucleotide binding, cells transfected with Kir6.2*-GFP + SUR1 were briefly sonicated, leaving behind unroofed plasma membrane fragments ([Heuser, 2000]; [Zagotta et al., 2016]; [Puljung et al., 2019]) containing ANAP-labelled KATP channels with the intracellular nucleotide-binding sites exposed to the bath solution. The sample was excited with a 385 nm LED and emitted fluorescence from the membrane fragments was passed through a spectrometer, allowing us to separate ANAP, GFP, and TNP-ATP fluorescence by peak wavelength (Figure 1E,F). As expected from FRET, increasing the concentration of TNP-ATP caused a decrement in the ANAP peak at 472 nm and a concomitant increase in the TNP-ATP peak at 561 nm (Figure 1F). We used the quenching of the ANAP peak as a direct measure of TNP-ATP binding as this signal was specific to KATP. In contrast, the peak TNP-ATP fluorescence may include contributions from both specific and non-specific nucleotide binding, as well as direct excitation of TNP-ATP in solution by the 385 nm excitation light. Due to the sharp cut-off of the GFP emission spectrum at shorter wavelengths, our measurements of peak ANAP fluorescence were unaffected by the presence of the GFP tag on Kir6.2. […]
Epifluorescence imaging and spectroscopy were performed using a Nikon Eclipse TE2000-U microscope with a 60x water immersion objective (Plan Apo VC, NA = 1.2, Nikon; Kingston upon Thames, UK) or a 100x oil immersion objective (Nikon, Apo TIRF, NA = 1.49). […] Fluorescence spectra were collected by exciting ANAP as above but using a 400 nm long-pass emission filter (ThorLabs), then passing emitted light through an IsoPlane 160 Spectrometer (Princeton Instruments; Trenton, NJ) with a 300 grooves mm^-1 grating. […]
Unroofed membranes were prepared as described previously ([Heuser, 2000]; [Zagotta et al., 2016]; [Puljung et al., 2019]). […] Unroofed membrane fragments were nearly invisible in bright-field images and identified by their GFP and ANAP fluorescence. […]

Structures are written as SMILES. “And” between values parts separate entries of the source, which are not always exact repeats. Equal entries are not always repeated.

Kir6.2-GFP + SUR1, sequence (Q09428 whole entry partner, one chain of several, the tested form may be a part): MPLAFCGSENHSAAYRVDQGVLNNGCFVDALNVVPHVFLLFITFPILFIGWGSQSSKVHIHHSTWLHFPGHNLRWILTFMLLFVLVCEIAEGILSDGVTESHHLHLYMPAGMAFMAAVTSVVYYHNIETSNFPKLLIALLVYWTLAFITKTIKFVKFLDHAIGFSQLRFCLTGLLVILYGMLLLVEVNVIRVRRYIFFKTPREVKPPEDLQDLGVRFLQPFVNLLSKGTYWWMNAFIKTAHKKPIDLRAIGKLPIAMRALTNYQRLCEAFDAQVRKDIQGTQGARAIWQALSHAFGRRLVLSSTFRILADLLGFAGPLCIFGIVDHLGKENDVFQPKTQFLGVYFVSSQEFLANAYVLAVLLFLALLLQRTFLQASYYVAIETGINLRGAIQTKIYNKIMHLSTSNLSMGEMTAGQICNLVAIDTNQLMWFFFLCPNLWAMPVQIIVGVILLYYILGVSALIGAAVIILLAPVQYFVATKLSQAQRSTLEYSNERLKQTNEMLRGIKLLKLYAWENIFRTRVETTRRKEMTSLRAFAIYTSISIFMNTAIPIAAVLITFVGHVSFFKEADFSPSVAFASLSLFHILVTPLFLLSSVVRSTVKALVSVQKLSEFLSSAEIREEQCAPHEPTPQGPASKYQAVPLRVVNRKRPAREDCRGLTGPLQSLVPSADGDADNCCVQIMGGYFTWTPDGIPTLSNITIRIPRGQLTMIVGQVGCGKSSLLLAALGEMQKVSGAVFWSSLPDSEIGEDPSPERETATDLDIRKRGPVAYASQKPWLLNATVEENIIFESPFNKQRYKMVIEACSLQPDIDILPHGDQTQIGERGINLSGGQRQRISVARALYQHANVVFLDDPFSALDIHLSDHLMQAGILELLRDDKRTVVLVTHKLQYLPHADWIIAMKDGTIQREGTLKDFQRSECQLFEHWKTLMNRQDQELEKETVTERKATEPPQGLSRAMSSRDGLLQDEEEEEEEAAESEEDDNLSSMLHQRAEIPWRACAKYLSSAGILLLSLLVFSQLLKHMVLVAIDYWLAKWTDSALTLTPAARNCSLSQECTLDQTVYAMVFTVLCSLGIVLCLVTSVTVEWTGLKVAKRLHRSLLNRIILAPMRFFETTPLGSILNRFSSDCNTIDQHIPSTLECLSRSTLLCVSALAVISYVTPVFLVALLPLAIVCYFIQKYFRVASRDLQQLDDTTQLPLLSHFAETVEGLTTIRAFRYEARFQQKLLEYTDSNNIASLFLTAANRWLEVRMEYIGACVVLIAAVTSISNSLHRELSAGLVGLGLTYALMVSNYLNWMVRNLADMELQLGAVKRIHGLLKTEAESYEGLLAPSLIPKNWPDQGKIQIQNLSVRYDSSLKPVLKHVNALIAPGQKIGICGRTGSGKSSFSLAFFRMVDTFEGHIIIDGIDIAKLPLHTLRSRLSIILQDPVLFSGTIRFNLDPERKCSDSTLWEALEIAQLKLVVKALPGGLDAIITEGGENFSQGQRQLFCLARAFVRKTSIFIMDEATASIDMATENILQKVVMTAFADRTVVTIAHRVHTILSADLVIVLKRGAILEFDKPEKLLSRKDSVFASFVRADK
T2 sequence (Q09428 whole entry K205E partner, one chain of several): as the sequence (Q09428 whole entry partner, one chain of several, the tested form may be a part) above, with K205E counted along it

In the case of `Nc1ncnc2c1ncn2[C@@H]1O[C@H](COP(=O)(O)OP(=O)(O)OP(=O)(O)O)[C@H]2OC3(O[C@H]21)C([N+](=O)[O-])=CC(=[N+]([O-])[O-])C=C3[N+](=O)[O-]` (some centres unmarked) [TNP-ATP, trinitrophenyl-ATP], in experiment [1] (IC50 current inhibition), the IC50 is 273 µM and 275 µM. Moreover, in experiment [1], the “h (Hill coefficient) current inhibition” value is on record as 1.09. In addition, the “h (Hill coefficient) fluorescence quenching” value in experiment [2] worked out at 0.74; in experiment [3] it was 0.82. In addition, the maximal effect (Emax) in experiment [2] (fraction) came to 100%; in experiment [3] (fraction, read-out: Emax fluorescence quenching) it was 93%. In addition, the EC50 in experiment [2] (n = 9) is 427 µM; in experiment [3] (n = 18, read-out: EC50 fluorescence quenching) it was 25.6 µM and 25.7 µM.
